Measurements from patent US4605649A, “Method of treatment of estrogen deficiency disease” (priority 1984, dated 1986).
Read-outs that look alike come from different tables or passages of the source.

Key:
estrogen receptor [1] = settings: cytosol of hypothalamus-preoptic area, pituitary, uterus; Pfeiffer et al. (1982); cited from earlier work
[2] = system: renal clear cell carcinoma; experiment: In vivo carcinogenicity: renal clear-cell carcinoma in male Syrian hamsters
Procedure: (§1) Male Syrian hamsters, 3-4 weeks of age (Harlan/Sprague Dawley, Madison, Wis.), were given a 25 mg. s.c. implant consisting of 10% cholesterol and 90% estrogen. A second 25 mg. pellet of the same composition was implanted 106 days after the initial estrogen treatment. Estrogen treatment was carried out according to the procedure of Kirkman--National Cancer Institute Monograph, 2, 1-57 (1959). Control animals were left untreated. Two hundred twenty-four days after treatment with estrogens had begun, hamsters were weighed, killed, both testes were excised and their weights measured in grams. Data presented in Table 1 are the ranges of testes weights from four animals in each group. Weights are expressed as percentages of total body weights.
The carcinogenicity of the modified estrogens was measured in male Syrian hamsters in vivo. Estrogen, and estrogen alone, causes renal clear cell carcinoma in 100% of the male animal population when exposed to s.c. estrogen implants. This kidney tumor is estrogen-induced and estrogen-dependent for development and growth. Failure to resupply estrogen every three months or surgical removal of implants results in tumor regression within a few weeks. […] The spontaneous kidney tumor incidence in Syrian hamsters without estrogen treatment is very low. The above facts are fully discussed in Kirkman, Nat'l. Can. Inst. Monograph, 1, 1 (1959); McGregor et al., J. Nat'l. Can. Inst., 24, 1057 (1960) and Sirbasku et al., Endocrin., 98, 1260 (1976).
The protocol employed was that set out for determining estrogen activity in male hamsters according to Table 1 (in that the animals examined for tumors at 224 days were the source of the testes). In the carcinogenicity experiment, further groups of animals were examined at 279 and 345 days. The animals were decapitated, the kidneys were excised and inspected visually for the occurrence of renal celear-cell carcinoma. Sections were prepared of all kidneys and studied histologically. In the table, column 1 gives the name of the compound, column 2 the total number of animals, column 3, the number of dead or lost animals and columns 4, 5 and 6 results of histologic examination of animals at the specified time interval for renal clear-cell carcinoma.

estrogen receptor [3] = settings: relative to estradiol = 100; Heiman et al., J. Med. Chem., 23, 994 (1980); cited from earlier work
[4] = system: catechol estrogen formation; settings: cited from earlier work
[5] = system: testes of male Syrian hamsters; experiment: Testes weight of male hamsters after s.c. estrogen implant (estrogenicity); type: in vivo; settings: for Range Of Testes Weight Of Male Hamsters: 25 mg s.c. pellet (90% estrogen), second pellet at 106 days, four animals per group
Procedure: In a second method, the weights of both testes of those male Syrian hamsters which were used in the in vivo carcinogenicity assay, were measured on the 224th day after s.c. implantation of 25 mg. pellets of estrogen. The weights were measured in grams (expressed as percent of total body weight).
as §1

protein or peptides = settings: cited from earlier work
DNA = settings: cited from earlier work
estrogenic activity = settings: catechol metabolites; cited from earlier work
[6] = system: tumors in experimental animals; settings: prolonged treatment; testes, endometrium, ovary, cervix, mammary and other tissues; cited from earlier work
[7] = 224 days after s.c. implantation of estrogen
[8] = 279 days after s.c. implantation of estrogen
[9] = 345 days after s.c. implantation of estrogen

Structure (SMILES) | No. of Animals with Tumors/No. of Animals Examined [2, 7] | No. of Animals with Tumors/No. of Animals Examined [2, 8] | No. of Animals with Tumors/No. of Animals Examined [2, 9] | Range Of Testes Weight Of Male Hamsters ([5]; 224 days) | estrogenic activity (estrogenic activity) | tumor induction [6] | further results
C[C@]12CC[C@@H]3c4cc(F)c(O)cc4CC[C@H]3[C@@H]1CC[C@@H]2O [2-fluoro-β-estradiol, 2-fluoro-3,17β-estradiol] | 0/4 | 0/4 | 0/3 | 0.18-0.25 % Of Total Body Weight |  |  | estrogen receptor affinity (estrogen receptor [1]): high receptor affinity; potential for induced renal clear cell carcinomas ([2]; in words, compared with estradiol or 4-fluoro-β-estradiol at equal estrogen dosages): greatly decreased potential; carcinogenicity (conclusion) ([2]; in words, particular animal model): non-carcinogenic; estrogen receptor binding affinity, ratio of association constants (Ka compound/Ka estradiol)×100 (estrogen receptor [3]): 86; catechol estrogen formation [4]: reduced catechol estrogen formation; estrogenicity (conclusion) ([5]; in words, hamster model): highly estrogenic
C[C@]12CC[C@@H]3c4cc(O)c(O)cc4CC[C@H]3[C@@H]1CC[C@@H]2O [2-hydroxyestradiol] |  |  |  |  | almost devoid of estrogenic activity |  | covalent binding to protein or peptides (protein or peptides; in vitro): bind covalently; covalent binding to DNA (DNA; in vitro): bind covalently
C[C@]12CC[C@@H]3c4cc(O)c(O)cc4CC[C@H]3[C@@H]1CCC2=O [2-hydroxyestrone] |  |  |  |  | almost devoid of estrogenic activity |  | covalent binding to protein or peptides (protein or peptides): bind covalently; covalent binding to DNA (DNA): bind covalently
C[C@]12CC[C@@H]3c4ccc(O)c(F)c4CC[C@H]3[C@@H]1CC[C@@H]2O [4-fluoro-β-estradiol] | 1/4 | 3/6 | 0/3 | 0.18-0.28 % Of Total Body Weight |  |  | estrogen receptor affinity (estrogen receptor [1]): high receptor affinity; animals judged histologically to be preneoplastic ([2]; 224 days): 2 of 4; estrogen receptor binding affinity, ratio of association constants (Ka compound/Ka estradiol)×100 (estrogen receptor [3]): 128; catechol estrogen formation ([4]; Krey et al. (1983)): reduced catechol estrogen formation
C[C@]12CC[C@@H]3c4ccc(O)c(O)c4CC[C@H]3[C@@H]1CC[C@@H]2O [4-hydroxyestradiol] |  |  |  |  | almost devoid of estrogenic activity |  | covalent binding to protein or peptides (protein or peptides; in vitro): bind covalently; covalent binding to DNA (DNA; in vitro): bind covalently
C[C@]12CC[C@@H]3c4ccc(O)c(O)c4CC[C@H]3[C@@H]1CCC2=O [4-hydroxyestrone] |  |  |  |  | almost devoid of estrogenic activity |  | covalent binding to protein or peptides (protein or peptides): bind covalently; covalent binding to DNA (DNA): bind covalently
CC/C(=C(/CC)c1ccc(O)cc1)c1ccc(O)cc1 [DES, diethylstilbestrol] |  |  |  |  |  | increase the number of tumors | 
C[C@]12CC[C@@H]3c4ccc(O)cc4CC[C@H]3[C@@H]1CC[C@@H]2O [estradiol] | 4/4 | 5/5 | 0/4 | 0.12-0.26 % Of Total Body Weight |  | induce tumors | testes weight relative to untreated hamsters ([5]; 224 days, shrinking to % of the weights of testes in untreated hamsters): approximately 10%
C[C@]12CC[C@@H]3c4ccc(O)cc4CC[C@H]3[C@@H]1C[C@@H](O)[C@@H]2O [estriol] |  |  |  |  |  | induce tumors | 
C[C@]12CC[C@@H]3c4ccc(O)cc4CC[C@H]3[C@@H]1CCC2=O [estrone] |  |  |  |  |  | induce tumors | 
